“Also recorded” adds a separate entry of the source.
Assays:
PTH-3R = conditions: zebrafish PTH-3R, Rubin et al; cited from earlier work
[1] = system: bones of male Sprague-Dawley rats; assay: Anabolic effect on bones of rats (histomorphometry of proximal tibiae); type: in vivo, rat; conditions: for osteoblast number per unit osteoid surface: FIG. 10; for histomorphometric markers of bone resorption: FIG. 11
Procedure: The anabolic effect of Fugu PTH was assessed in the bones of 50-60 g male Sprague-Dawley rats (3-4 weeks old).
Rats were subcutaneously administered a low or high dose (3 or 10 gg) of Fugu PTH(1-34) per 100 g body weight each day for 30 days. The synthetic PTH peptides were dissolved in 0.01M acetic acid and then daily injections were prepared in normal saline with 2% rat serum (from male Sprague-Dawley rats). The rats were weighed twice a week and the PTH dose adjusted for the increasing weight of each animal.
There were 12 rats in each of the following treatment groups: control, human PTH (low or high dose) and Fugu PTH (low or high dose). Rats were euthanased using asphyxiation and tibiae were removed, leaving most of the muscle on the bone. The samples were placed into freshly prepared 4% paraformaldehyde. They were fixed for 24 hours and then transferred to 70% ethanol in preparation for histomorphometry.
Fixed tibiae were X-rayed and embedded in methylmethacrylate resin as follows: Tibiae were cleaned of muscle, then bisected transversely and trimmed approximately 2 mm on each side using a water cooled slow speed bench saw to provide a flat surface for embedding, parallel to the sagittal midline. Fixed tibiae were dehydrated in acetone by hourly changes of 70% acetone, 90% acetone and 100% acetone (×2). After dehydration, samples were infiltrated with methylmethacrylate resin (85% methylmethacrylate, 15% dibutylphthalate, 0.05% benzoyl peroxide) twice for at least 3 days (minimum total of 6 days). For at least one day of the infiltration procedure, samples were infiltrated under vacuum at room temperature; all other steps were carried out at 4° C. After infiltration, tibiae were embedded in glass scintillation vials on a polymerised methylmethacrylate base in methylmethacrylate resin (85% methylmethacrylate, 15% dibuylphthalate, 3% benzoyl peroxide) in a waterbath in a 37° C. incubator over 48 hours. After polymerisation, a third layer of methacrylate was included (same components as above plus acrylic resin beads) and allowed to polymerise over another 48 hours. After samples were fully polymerised, they were cooled at −20° C. to allow polymer contraction, before the embedded tibiae were released from the glass vials by smashing them with a hammer. Polymerised tibiae were then ground on an electric grinder/ polisher to expose the bone surface, and provide a squared block to sit securely in a microtome. 5 μm sections were cut on a Leica 2165 microtome, spread with 95% ethanol and adhered to glass microscope slides by clamping overnight at 37° C. separated by pieces of bagging plastic. Fully adhered sections were deplasticised in cellosolve for 2×25 minutes, dehydrated in graded ethanols and stained with toluidine blue for standard histomorphometry. Von Kossa staining was carried out to provide composite images.
Histomorphometry was carried out according to standard procedures using the Osteomeasure Image analysis system (Osteometrics, Decatur, Ga.) in the secondary spongiosa, starting 3 mm below the growth plate in a region 3 mm wide by 1.1 mm high. Data was analysed by one-way ANOVA followed by Tukey's post-hoc test to locate significant differences.

PTH-1R = PTH-1R (UniProt P25961); assay: cell-based or functional assay
UMR106.01 cells = assay: cAMP production (adenylate cyclase response) in UMR106.01 cells; type: cell-based; conditions: for cAMP formation by the peptide alone: FIG. 5A/5B; for maximum amplitude of cAMP response: compared with other peptides at highest concentrations
Procedure: The PTH-like biological activity of the peptides was assayed by measuring cyclic adenosine 3′,5′-monophosphate (cAMP) production in UMR106.01 cells (Forrest et al, Calcif Tissue Int, 37:52-56 (1985)), grown to 90% confluence. Prior to assaying, the cells were washed once with phosphate buffered saline (PBS) and equilibrated for 20 mins in medium containing 0.1% BSA and lmM-isobutylmethylxanthine (Sigma, St Louis, USA). Cells were subsequently stimulated at 37° C for 10 mins in the absence and presence of increasing hormone concentrations. The cells were then washed once with PBS and cAMP was extracted with 1.5 ml acidified ethanol. Samples were evaporated to dryness, reconstituted in assay buffer and assayed by a specific cAMP radioimmunoassay (Houssami et al, Endocrine J. 2:127-134 (1994)).

[2] = system: polyclonal antisera raised against human PTHrP(1-14), human PTHrP(1-141) and hPTH(1-34); assay: Immunoblots (dot blots) with anti-human PTHrP and anti-human PTH antisera; type: binding, rabbit; conditions: 10, 25, 50 μg spotted, data not shown
From the text: Seven antisera (R88, R1904, R1942, R87, R1348, R196, R212) were raised against human PTHrP(1-14) and one antiserum (R190) was raised against human PTHrP(1-141). The anti-PTH polyclonal antibody was raised against hPTH(1-34)(BioGenex, San Ramon, USA). The anti-human PTHrP antisera have been used successfully in immunohistochemistry and Western blotting with tissues taken from bony and cartilaginous fishes (Danks et al, Gen Comp Endocrinol, 92:201-212 (1993); Ingleton et al, Gen Comp Endocrinol 98:211-218 (1995)). The anti-PTH antiserum has been used in immunohistochemistry of human parathyroid material and Western blotting (Danks et al, J Pathol, 161:27-33 (1993)). 10, 25, 50 μg of Fugu PTH were spotted along side a positive control, (ie human PTHrP(I-34)), on nitrocellulose membrane (Schleicher & Schuell, Dassel, Germany). After an initial incubation period with Tris buffered saline, 0.2% Tween, 5% skim milk powder to block non specific binding sites, the nitrocellulose membrane was incubated with primary polyclonal antibody, followed by secondary antibody (anti-rabbit serum conjugated to horseradish peroxidase (Dako, Carpenteria, USA)) incubation. Three washes on a shaker table were done in between incubations. A BM chemiluminescence blotting system (Roche Applied Sciences, Mannheim, Germany) was used to detect specific dot blots.

[3] = high dose 10 microgram/100 gram body weight/day
[4] = 10 microgram/100 gram body weight/day, 30 days, vs untreated control

UniProt P25961, sequence (P25961 27-591 limits assumed): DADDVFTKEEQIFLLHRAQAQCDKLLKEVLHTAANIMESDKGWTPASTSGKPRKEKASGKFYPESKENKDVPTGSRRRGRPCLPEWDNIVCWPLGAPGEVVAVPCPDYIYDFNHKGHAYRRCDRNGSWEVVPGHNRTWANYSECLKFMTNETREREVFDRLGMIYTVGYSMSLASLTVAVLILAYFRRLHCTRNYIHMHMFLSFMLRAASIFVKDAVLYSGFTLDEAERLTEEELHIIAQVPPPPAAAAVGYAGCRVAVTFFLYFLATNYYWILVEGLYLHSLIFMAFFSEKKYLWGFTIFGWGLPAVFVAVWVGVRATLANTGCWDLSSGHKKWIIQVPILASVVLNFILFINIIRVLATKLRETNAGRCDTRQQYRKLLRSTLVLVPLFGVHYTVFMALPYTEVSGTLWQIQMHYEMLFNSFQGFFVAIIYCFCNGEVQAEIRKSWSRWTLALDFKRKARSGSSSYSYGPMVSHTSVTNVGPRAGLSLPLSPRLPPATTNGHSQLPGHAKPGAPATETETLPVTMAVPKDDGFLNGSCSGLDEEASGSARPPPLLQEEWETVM

## human PTH: human parathyroid hormone, comparator peptide in rats (low or high dose); fragment length not stated there [reference compound]
PTH-3R
  fold less potent than human PTHrP or Fugu PTHrP in receptor activation: 20 fold
[1]; 10 microgram/100 gram
  osteoclastogenesis: mild reduction in osteoclastogenesis
[1]; dose not specified in legend, FIG. 9
  histomorphometric markers of bone formation (osteoblast number and surface): significantly elevated
[1]; [3]
  osteoblast number per unit osteoid surface: significantly increased
  histomorphometric markers of bone resorption: significantly reduced

## Fugu PTHrP(1-34) (peptide)
PTH-1R
  ID50 of adenylate cyclase response (FIG. 5B), UMR106.01 cells: 1.5 nM
  ID50 of cAMP formation in UMR106.01 cells: 1.4 nM

## Fugu PTH(1-32): synthetic fragment, amino acids 1-32 of Fugu PTH (TVSEVQLMHNLGEHKQVQERREWLQRRLHGIH)
UMR106.01 cells
  cAMP formation by the peptide alone: stimulated cAMP formation
  maximum amplitude of cAMP response: higher amplitude of maximum cAMP response than Fugu PTHrP(1-34)

## TVSEVQLMHNLGEHKQVQERREWLQRRLHGIHPIGLNNDDEPGWGRKGIASRELPNLRDLTPEEIQNALNVLEELLKSQE [Fugu PTH(1-34)]
UMR106.01 cells
  potency in cAMP assay relative to other peptides: less potent than human PTH(1-34), human PTHrP(1-34) and Fugu PTHrP(1-34)
  cAMP formation by the peptide alone: stimulated cAMP formation
  maximum amplitude of cAMP response: higher amplitude of maximum cAMP response than Fugu PTHrP(1-34); also recorded: significantly greater than that achieved with the highest concentrations of human PTH, human PTHrP or Fugu PTHrP
UMR106.01 cells; 100 nM Fugu PTH(1-34) with maximal dose 10 nM Fugu PTHrP(1-34), data not shown
  adenylate cyclase activity on co-incubation with Fugu PTHrP(1-34): no further increase in adenylate cyclase activity was observed
UMR106.01 cells; adenylate cyclase activation on a mammalian target cell
  potency relative to human PTH or PTHrP: about one-fifth to one-tenth
[1]; [4]
  trabecular bone volume: significant increase
  trabecular number: significant increase
  trabecular separation: without a reduction
  trabecular thickness: significant increase
[1]; 10 micrograms/100 grams
  osteoblast generation: increased osteoblast generation
[1]; 10 micrograms/100 grams, young growing rats
  anabolic effect on bone: anabolic in young growing rats
[1]; dose not specified
  histomorphometric markers of bone resorption: not significantly altered
[1]; [3]
  osteoclast number: trend for reduced osteoclast numbers but this did not reach statistical significance; also recorded: trend towards reduced osteoclast number
  osteoblast number per unit osteoid surface: significantly increased
[1]; low dose 3 microgram/100 gram body weight/day, FIG. 9
  osteoblast proliferation: trend towards increased osteoblast proliferation
[1]; low dose 3 microgram/100 gram body weight/day
  osteoblast number per unit osteoid surface: significantly increased
[1]; young rats, s.c. daily for 30 days, 3 or 10 microgram/100 gram body weight/day, FIG. 6
  bone mass / trabecular density in proximal tibiae: increases bone mass in young rats; also recorded: apparent elevation of trabecular density
[2]
  cross-reactivity with antisera against human PTHrP and human PTH: does not cross-react; also recorded: is not recognised by any of the human PTH or human PTHrP antisera

## human PTHrP(7-34): human parathyroid hormone-related protein fragment 7-34, co-incubated as inhibitor of the cAMP response [reference compound]
UMR106.01 cells; increasing concentrations co-incubated with 10 nM Fugu PTH(1-34), 1 nM human PTH(1-34), 0.5 nM Fugu PTHrP(1-34) or 0.5 nM human PTHrP(1-34), data not shown
  inhibition of the cAMP response to agonist peptides: partial inhibition of the cAMP response

Source: US20070117157A1, “Parathyroid hormone-like polypeptides” (priority 2002, published 2007)
